Measured values taken from patent EP1285920A1, “C10 Ester sustituted taxanes as antitumor agents” (Florida State University Research Foundation, Inc., priority 2001, dated 2003).
Read-outs that look alike come from different tables or passages of the source.

How the values were obtained:
[1] = tested on: HCT116; assay: In Vitro cytotoxicity measured by the cell colony formation assay; type: cell-based, human; conditions: Homo sapiens, HCT-116; read-out: IN VITRO ID 50 HCT116
Method in brief: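 Four hundred cells per dish in McCoy's 5a medium with 10% FBS were allowed to attach for 5 h at 37 °C. They were then exposed to compound for 72 h at 37 °C, added as a 10× stock made fresh in medium. After HBSS rinsing and refeeding, colonies were counted after 7 days.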

[2] = tested on: A2780 ovarian carcinoma; conditions: for MDS: i.v. qd x 1 (compounds estimated MTD; Taxol 24 mg/kg split; Taxotere 70 mg/kg), days until tumor 2.0 g, ended Day 60
Description: Dosing was initiated on Day 1. […] Taxotere was given i.v. on a qd x 1 schedule at a dose of 70 mg/kg. […] The study was terminated on Day 60. Treatment groups are detailed in Table 7.

[3] = tested on: MX-1 carcinoma; conditions: for Toxic Deaths: mg/kg: Taxol 36 (split dose), 0503 72.6, 0536 49, 0663 159, 0670 123, 0687 159, 0706 108, 0908 159, 0947 76.9, 0951 72.6, 0983 67.4, 0999 49, 1003 49, 1011 108; for treated animals with durable complete responses and partial responses: single i.v. MTD
Description: Thirteen antitumor compounds were formulated for an i.v. dosing regime (single i.v. bolus, qd x 1 schedule) prepared in the following vehicle: 5% ethanol, 5% Cremophor and 90% isotonic saline.
(§1) The antitumor compounds were given intravenously in a single maximum tolerated dose (MTD) appropriate for each compound. […] The MTDs for the antitumor compounds were calculated from earlier single dose data for mice receiving i.v. administration of these compounds. All vehicle control animals in the split dosing regimes were dosed twice intravenously with half the total volume being given separated by one hour. The study was terminated on Day 60.
A complete response is obtained if the tumor is not palpable at the end of the study. […]

[4] = tested on: HCT116 carcinoma; conditions: for Toxic Deaths: mg/kg: Taxol 36 (split doses), 0503 72.6, 0536 49, 0663 159, 0670 123, 0687 159, 0706 108, 0908 159, 0947 76.9, 0951 72.6, 0983 72.6, 0999 49, 1003 49, 1011 108
Description: Antitumor compounds were formulated for an i.v. dosing regime and were prepared in the following vehicle: 5% ethanol, 5% Cremophor and 90% isotonic saline.
as §1, with “half of” for “half”
A complete response is obtained if the tumor is not palpable at the end of the study.

[5] = mean days of survival until neoplasm reached 2.0 g, i.v. qd x 1 at estimated MTD (Taxol 24 mg/kg, Taxotere 70 mg/kg, 0983 72.6 mg/kg), 5 mice/group (Taxotere 6), terminated Day 60
[6] = number of mice, i.v. qd x 1 at estimated MTD (Taxol 24 mg/kg, Taxotere 70 mg/kg, 0983 72.6 mg/kg), 5 mice/group (Taxotere 6)
[7] = number of mice, i.v. qd x 1 at estimated MTD (Taxol 24 mg/kg, Taxotere 70 mg/kg, 0983 72.6 mg/kg), 5 mice/group (Taxotere 6), Day 60
[8] = tumor scoring system, i.v. qd x 1 at estimated MTD (Taxol 24 mg/kg, Taxotere 70 mg/kg, 0983 72.6 mg/kg), 5 mice/group (Taxotere 6)
[9] = i.v. qd x 1 at MTD, 6 mice/group, Day 60, doses as in E17
[10] = number of 6 mice, tumor did not reach 2.0 g by end of study, i.v. qd x 1 at MTD, Day 60, doses as in E17
[11] = number of 6 mice, tumor not palpable at end of study, i.v. qd x 1 at MTD, Day 60, doses as in E17
[12] = number of 6 mice, tumor smaller than on Day 1, i.v. qd x 1 at MTD, Day 60, doses as in E17
[13] = number of 6 mice, i.v. qd x 1 at MTD, Day 60, doses as in E17
[14] = number of 6 mice, i.v. qd x 1 at MTD, Day 60
[15] = i.v. qd x 1 at MTD, 5 mice/group, Day 60, doses as in E3
[16] = number of 5 mice, tumor did not reach 2.0 g by end of study, i.v. qd x 1 at MTD, Day 60, doses as in E3
[17] = number of 5 mice, tumor not palpable at end of study, i.v. qd x 1 at MTD, Day 60, doses as in E3
[18] = number of 5 mice, tumor smaller than on Day 1, i.v. qd x 1 at MTD, Day 60, doses as in E3
[19] = number of 5 mice, i.v. qd x 1 at MTD, Day 60, doses as in E3
[20] = number of 5 mice, i.v. qd x 1 at MTD, Day 60
[21] = A2780, i.v. qd x 1, five mice per group

CCC(=O)O[C@H]1C(=O)[C@@]2(C)[C@H]([C@H](OC(=O)c3ccccc3)[C@]3(O)C[C@H](OC(=O)[C@H](O)[C@@H](NC(=O)OC(C)(C)C)c4ccco4)C(C)=C1C3(C)C)[C@]1(OC(C)=O)CO[C@@H]1C[C@@H]2O [Compound 0536]
IC50 [1]: < 1 nM
antitumor activity ([2]; A2780, i.v. qd x 1): did not cause any complete responses, partial responses, or cases of stable disease
MDS ([2]; A2780): 42.6 days
MDS (n) [2, 5]: 42.6 ± 3.3 (5) days
Toxic Deaths [2, 6]: 0
Complete Response [2, 7]: 0
Partial Respons [2, 7]: 0
Stable Disease [2, 7]: 0
Survivors [2, 7]: 0
Mean Score [2, 8]: 3 ± 0
antitumor activity / tumor response ([3]; MX-1, i.v. qd x 1, Day 60): complete and durable tumor regressions in all the treated mice
Mean Score [3, 9]: 6.7 ± 2.1
Stable Disease [3, 10]: 0
Complete Response [3, 11]: 4
Partial Response [3, 12]: 0
Survivors [3, 13]: 4
Toxic Deaths [3, 14]: 2
Mean Score [4, 15]: 9.2 ± 0.2
Stable Disease [4, 16]: 0
Complete Response [4, 17]: 1
Partial Response [4, 18]: 4
Survivors [4, 19]: 5
Toxic Deaths [4, 20]: 0

CCC(=O)O[C@H]1C(=O)[C@@]2(C)[C@H]([C@H](OC(=O)c3ccccc3)[C@]3(O)C[C@H](OC(=O)[C@H](O)[C@@H](NC(=O)c4ccccc4)c4ccco4)C(C)=C1C3(C)C)[C@]1(OC(C)=O)CO[C@@H]1C[C@@H]2O [Compound 0663]
IC50 [1]: < 1 nM
survival extension compared to Group 1 controls ([2]; A2780, i.v. qd x 1): 214%
total response rate [2, 21]: at least 20%
Partial Response ([3]; iv): 0
Complete Response ([3]; iv, 1440 h): 4
Mean Score ([3]; iv, 1440 h): 7.7 ± 1.5
Stable Disease ([3]; iv, 1440 h): 1
Survivors [3, 13]: 5
Toxic Deaths [3, 14]: 0
Partial Response ([4]; iv): 2
Complete Response ([4]; iv, 1440 h): 2
Mean Score ([4]; iv, 1440 h): 7.6 ± 1.9
Stable Disease ([4]; iv, 1440 h): 0
Survivors [4, 19]: 4
Toxic Deaths [4, 20]: 1

CCC(=O)OC1C(=O)C2(C)C(O)CC3OCC3(OC(C)=O)C2C(OC(=O)c2ccccc2)C2(O)CC(OC(=O)C(O)C(NC(=O)c3ccccc3)c3cccs3)C(C)=C1C2(C)C (stereo not shown) [Compound 0687]
Survivors [2, 7]: 0
Survivors [3, 13]: 5
Survivors [4, 19]: 5

CC(=O)O[C@@]12CO[C@@H]1C[C@H](O)[C@@]1(C)C(=O)[C@H](OC(=O)C3CC3)C3=C(C)[C@@H](OC(=O)[C@H](O)[C@@H](NC(=O)c4ccccc4)c4ccco4)C[C@@](O)([C@@H](OC(=O)c4ccccc4)[C@H]21)C3(C)C [Compound 0908]
IC50 [1]: < 1 nM
survival extension compared to Group 1 controls ([2]; A2780, i.v. qd x 1): 268%
MDS ([2]; A2780): 43.1 days
Toxic Deaths [2, 21]: one
total response rate [2, 21]: at least 20%
MDS (n) [2, 5]: 43.1 ± 8.0 (2) days
Toxic Deaths [2, 6]: 1
Complete Response [2, 7]: 0
Partial Respons [2, 7]: 1
Stable Disease [2, 7]: 1
Survivors [2, 7]: 2
Mean Score [2, 8]: 3.8 ± 1.5
treated animals with durable complete responses and partial responses ([3]; MX-1): 100%
Mean Score [3, 9]: 9.7 ± 0.3
Stable Disease [3, 10]: 0
Complete Response [3, 11]: 5
Partial Response [3, 12]: 1
Survivors [3, 13]: 6
Toxic Deaths [3, 14]: 0
Mean Score [4, 15]: 9.2 ± 0.2
Stable Disease [4, 16]: 0
Complete Response [4, 17]: 1
Partial Response [4, 18]: 4
Survivors [4, 19]: 5
Toxic Deaths [4, 20]: 0

CCCC(=O)O[C@H]1C(=O)[C@@]2(C)[C@H]([C@H](OC(=O)c3ccccc3)[C@]3(O)C[C@H](OC(=O)[C@H](O)[C@H](C=C(C)C)NC(=O)OC(C)(C)C)C(C)=C1C3(C)C)[C@]1(OC(C)=O)CO[C@@H]1C[C@@H]2O [Compound 0947]
IC50 [1]: < 1 nM
partial responses [2, 21]: 2
total response rate [2, 21]: at least 20%
Mean Score ([2]; iv, 72.6 mg/kg): 4.8 ± 1.8
Complete Response ([2]; iv, 72.6 mg/kg, 1440 h): 0
MDS (n) ([2]; iv, 72.6 mg/kg, 1440 h): 32.7 ± 5.4 (2) days
Partial Respons ([2]; iv, 72.6 mg/kg, 1440 h): 2
Stable Disease ([2]; iv, 72.6 mg/kg, 1440 h): 0
Toxic Deaths [2, 6]: 1
Survivors [2, 7]: 2
Partial Response ([3]; iv): 0
Complete Response ([3]; iv, 1440 h): 3
Mean Score ([3]; iv, 1440 h): 5.5 ± 2.1
Stable Disease ([3]; iv, 1440 h): 0
Survivors [3, 13]: 3
Toxic Deaths [3, 14]: 2
Partial Response ([4]; iv): 4
Complete Response ([4]; iv, 1440 h): 1
Mean Score ([4]; iv, 1440 h): 9.2 ± 0.2
Stable Disease ([4]; iv, 1440 h): 0
Survivors [4, 19]: 5
Toxic Deaths [4, 20]: 0

CCCC(=O)O[C@H]1C(=O)[C@@]2(C)[C@H]([C@H](OC(=O)c3ccccc3)[C@]3(O)C[C@H](OC(=O)[C@H](O)[C@@H](NC(=O)OC(C)(C)C)c4ccccn4)C(C)=C1C3(C)C)[C@]1(OC(C)=O)CO[C@@H]1C[C@@H]2O [Compound 0951]
IC50 [1]: < 1 nM
antitumor activity ([2]; A2780, i.v. qd x 1): no tumor shrinkage
survival extension compared to Group 1 controls ([2]; A2780, i.v. qd x 1): 269%
MDS ([2]; A2780): 43.2 days
Stable Disease [2, 21]: one
treated animals with durable complete responses and partial responses ([3]; MX-1): 100%
Mean Score [3, 9]: 9.5 ± 0.5
Stable Disease [3, 10]: 0
Complete Response [3, 11]: 5
Partial Response [3, 12]: 1
Survivors [3, 13]: 6
Toxic Deaths [3, 14]: 0
Mean Score [4, 15]: 9.6 ± 0.2
Stable Disease [4, 16]: 0
Complete Response [4, 17]: 3
Partial Response [4, 18]: 2
Survivors [4, 19]: 5
Toxic Deaths [4, 20]: 0

CCCC(=O)O[C@H]1C(=O)[C@@]2(C)[C@H]([C@H](OC(=O)c3ccccc3)[C@]3(O)C[C@H](OC(=O)[C@H](O)[C@@H](NC(=O)OC(C)(C)C)c4ccoc4)C(C)=C1C3(C)C)[C@]1(OC(C)=O)CO[C@@H]1C[C@@H]2O [Compound 0999]
IC50 [1]: < 1 nM
total response rate [2, 21]: at least 20%
Mean Score [3, 9]: 8.2 ± 1.2
Stable Disease [3, 10]: 0
Complete Response [3, 11]: 4
Partial Response [3, 12]: 1
Survivors [3, 13]: 5
Toxic Deaths [3, 14]: 0
Mean Score [4, 15]: 9.2 ± 0.2
Stable Disease [4, 16]: 0
Complete Response [4, 17]: 1
Partial Response [4, 18]: 4
Survivors [4, 19]: 5
Toxic Deaths [4, 20]: 0

CCC(=O)OC1C(=O)C2(C)C(O)CC3OCC3(OC(C)=O)C2C(OC(=O)c2ccccc2)C2(O)CC(OC(=O)C(O)C(NC(=O)OC(C)(C)CC)c3ccco3)C(C)=C1C2(C)C (stereo not shown) [Compound 6522]
IC50 [1]: < 1 nM
